How the values were obtained:
Assay type in all cases: cell-based
[1] = system: Candida albicans; assay: Synergistic and fungicidal effect on exponential phase cultures (CFU/ml over time); details: ketoconazole 1 μg/ml
Description: Synergistic and fungicidal effects were determined by treating exponential phase Candida albicans cultures with β-Lactone at MIC and MFC levels and ketoconazole at 0.1 μg/ml or a 1 μg/ml alone or in combination. Exponential phase cultures were prepared by diluting an overnight culture 1:50 or 1:1000 in YNB/G. After incubating the diluted cells 7 or 17 hrs. at 37° C., the exponential phase cells were diluted in YNB/G to A600 =0.0004 u/ml to obtain 3000 cfu/ml.
10 microliters (μl) of β-lactone compound or ketoconazole prepared in DMSO was added to 1 ml of diluted exponential phase cells. The tubes were incubated at 37° C. at 250 rpm for 27 hours. Periodically, aliquots were diluted in 0.9% saline and plated on Sabouraud dextrose agar plates to determine the number of cfu/ml.

[2] = system: A. niger; assay: MIC against fungal panel, A. niger; details: Aspergillus niger, read-out: MIC, Ketoconazole Alone
Description: (§1) First the MIC for the β-lactone compound and the MIC for the ketoconazole were determined against an array of organisms. Thereafter, the effects on the MIC of adding 0.031, 0.125, 0.5 and 2 μg/ml of ketoconazole were determined.

[3] = system: C. miyabeamis; assay: MIC against fungal panel, C. miyabeamis; details: read-out: MIC, Ketoconazole Alone
Description: In a manner similar to that above described for effect against Candida albicans the synergistic effect of the combination of the β-lactone compound and ketoconazole against a fungal panel was determined by plating on potato dextrose agar.
as §1

[4] = system: F. oxysporium; assay: MIC against fungal panel, F. oxysporium; details: read-out: MIC, Ketoconazole Alone
Description: as §1

[5] = system: U. zeae; assay: MIC against fungal panel, U. zeae; details: read-out: MIC, Ketoconazole Alone
Description: as §1

[6] = system: C. neoformans; assay: MIC against fungal panel, C. neoformans; details: Cryptococcus neoformans, read-out: MIC, Ketoconazole Alone
Description: as §1

[7] = system: C. albicans (Y1055); assay: MIC against fungal panel, C. albicans (Y1055); details: Candida albicans, read-out: MIC, Ketoconazole Alone
Description: as §1

[8] = system: C. albicans (Y1750); assay: MIC against fungal panel, C. albicans (Y1750); details: Candida albicans, read-out: MIC, Ketoconazole Alone
Description: as §1

With CC(=O)N1CCN(c2ccc(OC[C@H]3CO[C@](Cn4ccnc4)(c4ccc(Cl)cc4Cl)O3)cc2)CC1 (relative stereo) [Ketoconazole, cis-1-acetyl-4-[4-[[2-(2,4-dichlorophenyl)-2-(1H-imidazole-1-ylmethyl)-1,3-dioxolan-4-yl]methoxy]-phenyl]piperazine] the “Fungal Growth” value ([1]; Table 1, 0 hours) was 2.95 × 10^3 CFU/ML, the “Fungal Growth” value ([1]; Table 1, 2 hours, β-lactone 2.5 μg/ml, alone or combined) was 5.1 × 10^3 CFU/ML and the “Fungal Growth” value ([1]; Table 1, 4.5 hours, β-lactone 2.5 μg/ml, alone or combined) was 1.09 × 10^4 CFU/ML. For the same compound, the “Fungal Growth” value ([1]; Table 1, 7 hours, β-lactone 2.5 μg/ml, alone or combined) was 2.40 × 10^4 CFU/ML, the “Fungal Growth” value ([1]; Table 1, 11 hours, β-lactone 2.5 μg/ml, alone or combined) was 6.90 × 10^4 CFU/ML and the “Fungal Growth” value ([1]; Table 1, 17 hours, β-lactone 2.5 μg/ml, alone or combined) was 1.36 × 10^5 CFU/ML. The “Fungal Growth” value ([1]; Table 1, 22 hours, β-lactone 2.5 μg/ml, alone or combined) was 3.30 × 10^5 CFU/ML, the “Fungal Growth” value ([1]; Table 1, 27 hours, β-lactone 2.5 μg/ml, alone or combined) was 7.20 × 10^5 CFU/ML and the “Fungal Growth” value ([1]; Table 2, 0 hours) was 2.95 × 10^3 CFU/ML. For the same compound, the “Fungal Growth” value ([1]; Table 2, 2 hours, β-lactone 10 μg/ml, alone or combined) was 5.1 × 10^3 CFU/ML, the “Fungal Growth” value ([1]; Table 2, 4.5 hours, β-lactone 10 μg/ml, alone or combined) was 1.09 × 10^4 CFU/ML and the “Fungal Growth” value ([1]; Table 2, 7 hours, β-lactone 10 μg/ml, alone or combined) was 2.40 × 10^4 CFU/ML. The “Fungal Growth” value ([1]; Table 2, 11 hours, β-lactone 10 μg/ml, alone or combined) was 6.90 × 10^4 CFU/ML, the “Fungal Growth” value ([1]; Table 2, 17 hours, β-lactone 10 μg/ml, alone or combined) was 1.36 × 10^5 CFU/ML and the “Fungal Growth” value ([1]; Table 2, 22 hours, β-lactone 10 μg/ml, alone or combined) was 3.30 × 10^5 CFU/ML. The “Fungal Growth” value ([1]; Table 2, 27 hours, β-lactone 10 μg/ml, alone or combined) was 7.20 × 10^5 CFU/ML, the MIC [2] was over 2 µg/mL and the MIC [3] was 2 µg/mL. For the same compound, the MIC [4] was over 2 µg/mL, the MIC [5] was over 2 µg/mL and the MIC [6] was over 2 µg/mL. It also gave an MIC [7] of over 2 µg/mL and an MIC [8] of over 2 µg/mL.
